Article PMC8113213, “Physiologically based kinetic modelling based prediction of in vivo rat and human acetylcholinesterase (AChE) inhibition upon exposure to diazinon” (Archives of Toxicology, 2021)
pIC50: −log10 of the molar value. Where two headings read alike, the source gives them in different places.

Experiments:
CYP450 = assay: in vitro; type: in vitro ADME, human; details: for Km: human
Procedure: The in vitro incubations for investigating CYP450-mediated biotransformation of DZN were performed using rat and human liver microsomes based on the method described by Sams et al. ([2004]) and Smith et al. ([2011]) with some modifications. Preliminary studies were carried out to optimize both incubation time and microsomal protein concentration, to define conditions at which metabolism was linear with respect to time and the amount of microsomal protein (data not shown) to be used for further kinetic studies. The final incubations contained 50 mM Tris–HCl (pH 7.4), 5 mM MgCl2, 1 mM EDTA (as an A-esterase PON1 inhibitor) (Bizoń and Milnerowicz [2018]), 50 µM iso-OMPA (as a B-esterases inhibitor) (Lane et al. [2006]), 1 mM NADPH, and DZN at final concentrations of 1, 2.5, 5, 10, 25, 50, 100 and 250 µM (added from 100 times concentrated stock solutions in methanol). […] Addition of esterase inhibitors EDTA and iso-OMPA has been commonly applied when studying CYP450-mediated conversion of organophosphate (OP) pesticides in liver microsomal incubations for determining kinetic parameters for their CYP450-mediated pathways (Buratti et al. [2005]; Dadson et al. [2013]; Ellison et al. [2012]; Foxenberg et al. [2007]; Poet et al. [2003]; Smith et al. [2011]). Based on previous studies, CYP450-mediated activities are not adversely affected by the addition of these inhibitors (1 mM EDTA and 50 µM iso-OMPA) to the microsomal incubations (Buratti et al. [2003]; Rasmussen [2012]). After 1 min preincubation in a 37 °C water bath, 2.5 µl of human or rat liver microsomes (final concentration 0.25 mg microsomal protein/ml) were added to initiate the reaction. The total incubation mixture was 200 µl. Control incubations were carried out by replacing NADPH with buffer. The reaction was terminated after 2.5 min by adding 200 µl ice-cold ACN. After the incubation, samples were centrifuged at 16000 g (4℃) for 5 min, and supernatants of rat samples were further diluted 2 × in a mixture of ACN and 50 mM Tris–HCl (pH 7.4) (ratio 1:1, v/v). At the end, both diluted rat sample supernatants and undiluted human sample supernatants were analysed by LC–MS/MS for quantification of metabolite formation.
The chromatographic separations were conducted on a Kinetex® 1.7 µm Phenyl-Hexyl 100 Å LC column (100 × 2.1 mm). The injection volume was 1 µl at a flow rate of 0.3 ml/min. The temperature of the column was kept at 40℃. The mobile phase A consisted of ultrapure water with 0.1% (v/v) formic acid, and mobile phase B consisted of acetonitrile (ACN) with 0.1% (v/v) formic acid. […] The instrument was used in positive mode with multiple reaction monitoring (MRM). The optimized acquisition parameters for DZN, DZO and the metabolite IMHP are listed in Supplementary data I. […]

[1] = type: in vitro ADME; details: intestinal microsomes, data not shown
Procedure: The physiological parameters for rat and human were obtained from Brown et al. ([1997]) as well as Gearhart et al. ([1990]), and are summarised in Table 1. […] The kinetic parameters for biotransformation of DZN in rat and human were obtained by conducting in vitro liver microsomal/plasma incubations as described in the section “In vitro metabolic incubations for deriving kinetic parameters”. […] The first-pass metabolism of DZN by the intestine was not taken into account in the current model because the metabolic conversion in the intestine derived from the conversion in incubations with intestinal microsomes upon scaling to the whole organ, appeared less than 5% of that obtained in a similar way for the liver (data not shown). […] To scale the in vitro Vmax values to the in vivo situation, the following scaling factors were used; 35 mg microsomal protein/g liver for rat hepatic metabolism (Medinsky et al. [1994]), 32 mg microsomal protein/g liver for human hepatic metabolism (Barter et al. [2007]), 77 mg plasma protein/ml plasma (total plasma protein concentration) for human plasma metabolism, and 60 mg plasma protein/ml plasma (total plasma protein concentration) for rat plasma metabolism. Plasma volume in rat and human were assumed as 55% of their corresponding blood volume (O'Neil [1999]). The Km values determined in vitro were assumed to be equal to in vivo Km values. […]

[2] = molecular target: T1, recombinant human AChE (rhAChE) (Homo sapiens, UniProt P22303); assay: biochemical
T1 construct: purchased Sigma-Aldrich Co
T1 sequence (P22303 32-614): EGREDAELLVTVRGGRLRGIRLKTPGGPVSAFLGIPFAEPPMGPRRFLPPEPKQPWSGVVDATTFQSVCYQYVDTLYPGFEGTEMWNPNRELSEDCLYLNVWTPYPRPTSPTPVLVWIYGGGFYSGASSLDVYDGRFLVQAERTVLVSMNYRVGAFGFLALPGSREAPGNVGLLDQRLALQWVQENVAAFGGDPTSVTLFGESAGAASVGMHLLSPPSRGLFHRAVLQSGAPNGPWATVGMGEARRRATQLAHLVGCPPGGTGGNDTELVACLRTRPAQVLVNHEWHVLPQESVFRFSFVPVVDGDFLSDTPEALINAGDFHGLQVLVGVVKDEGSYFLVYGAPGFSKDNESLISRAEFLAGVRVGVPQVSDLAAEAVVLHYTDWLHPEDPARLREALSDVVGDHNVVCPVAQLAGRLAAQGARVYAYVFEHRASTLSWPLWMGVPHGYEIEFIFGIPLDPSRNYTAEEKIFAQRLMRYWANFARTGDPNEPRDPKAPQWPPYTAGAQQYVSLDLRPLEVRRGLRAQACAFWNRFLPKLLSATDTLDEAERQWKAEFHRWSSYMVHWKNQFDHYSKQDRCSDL
Procedure: However, since recombinant rat AChE was not commercially available, extracted rat RBC AChE was used. […] The concentration of DTNB was calculated based on the concentration ratio (ATC/DTNB) of 2 (Stern et al. [2014]). […] To initiate the inhibition reaction, 1 µl rhAChE or rat AChE (final concentration 0.6 mU/ml) was added to the incubation. The total incubation volume was 50 µl. After 15 min incubation at 37℃, 150 µl reaction reagents (mixture of ATC at a final concentration of 150 µM and DTNB at a final concentration of 75 µM) were added into each well. The final total volume of each well was 200 µl. Subsequently, the 96-well plate was measured continuously for 10 min at absorbance 412 nm at 37℃ to quantify the remaining AChE activity.
The rhAChE and rat AChE activity were expressed as the remaining AChE activity relative to solvent control (100% activity) and positive control (0% activity) based on Eq. (2):2 AChEactivity\%=A412t10-t0testcompound-A412t10-t0positivecontrol/A412t10-t0solventcontrol-A412t10-t0positivecontrol×100\% , where the A412(t10 − t0)test compound is the change in the absorbance at A412 nm between 0 and 10 min for the test compound, the A412(t10 − t0)positive control is the change in the absorbance at A412 nm between 0 and 10 min for the CPO sample, and the A412(t10 − t0)solvent control is the change in the absorbance at A412nm between 0 and 10 min for the 0.2% ethanol sample.

[3] = rat; ref JMPR 2016; cited from earlier work
brain AChE = details: cited from earlier work; for inhibition of brain AChE: ref Padilla et al. 2004

With `CCOP(=S)(OCC)Oc1cc(C)nc(C(C)C)n1` [DZN, O,O-diethyl O-2-isopropyl-6-methylpyrimidin-4-yl phosphorothioate] the “Vmax DZN to DZO” value (CYP450; human liver microsomes) was 0.187 nmol/min/mg microsomal protein, the “Vmax DZN to IMHP” value (CYP450; human liver microsomes) was 0.665 nmol/min/mg microsomal protein and the Km (CYP450; pH 7.4, Km DZN to DZO, human liver microsomes) was 59.6 µM. The Km (CYP450; pH 7.4, human liver microsomes, read-out: Km DZN to IMHP) was 16.3 µM, the “metabolic conversion in the intestine scaled to the whole organ, relative to that for the liver” value [1] was “less than 5%” and the “lower AChE inhibitory potency of DZN than of DZO” value [2] was “around 300 fold”. The pIC50 ([2]; rhAChE, 15 min incubation at 37℃, read-out: IC50 for inhibition of AChE activity) was 4.85, the “toxic dose level reported” value [3] was 300 mg/kg bw and the “inhibition of brain AChE” value (brain AChE; adult rats, oral dose of 75 mg/kg bw) was 38%. For the same molecule, the “BMDL10 for inhibition of brain AChE” value (brain AChE; male adult rats, oral DZN, ref USEPA 2016) was 12.175 mg/kg bw/day and the “inhibition of brain AChE” value (brain AChE; pups at postnatal day 17, oral dose of 75 mg/kg bw) was 75%.
